The source of these data is ChEMBL document CHEMBL3232785, “Basic quinolinonyl diketo acid derivatives as inhibitors of HIV integrase and their activity against RNase H function of reverse transcriptase” (J Med Chem, 2014).

SMILES strings stand for the structures. pEC50, pIC50: −log10 of the molar value. Active and inactive are the calls of the source. The rule behind the calls is not given here.

For series [1], the system named is Human immunodeficiency virus 1. The series can be described thus: Antiviral activity against HIV1 3B infected in human HeLa cells expressing CD4-LTR-beta-gal assessed as inhibition of viral replication after 3 days by reporter gene assay. The series is classed as functional, organism-based. To be noted: Human immunodeficiency virus 1, 3B, 72 h.
In another series the test system is HeLa. The series can be described thus: Cytotoxicity against human HeLa cells expressing CD4-LTR-beta-gal after 24 hrs by ATPlite assay. The series is classed as cell-based. (ATP-based viability assays read luminescence as a measure of living cells.)
The target of series [2] is Human immunodeficiency virus type 1 reverse transcriptase (Human immunodeficiency virus 1, UniProt Q72547). The series can be described thus: Inhibition of HIV1 RNase H function of recombinant reverse transcriptase using an 18-nt 3'-fluorescein-labeled RNA annealed to complementary 18-nt 5'-dabsyl-labeled DNA as substrate after 10 mins by fluorescence spectrometer analysis.

Series [3] concerns the target Human immunodeficiency virus type 1 reverse transcriptase (Human immunodeficiency virus 1) (UniProt Q72547). The series can be described thus: Inhibition of HIV1 polymerase function of reverse transcriptase up to 40 uM.
Another series is described as follows: in vitro. The conditions noted are these: human, HeLa cells expressing CD4-LTR-beta-gal.
Series [4] has as its target T1, Human immunodeficiency virus type 1 integrase (Human immunodeficiency virus 1, UniProt Q7ZJM1). The series can be described thus: Inhibition of HIV1 integrase strand transfer activity by gel-based assay.
Series [5] deals with T1, Human immunodeficiency virus type 1 integrase. The series can be described thus: Inhibition of HIV1 integrase 3'-processing activity by gel-based assays.

T1 sequence (Q7ZJM1 whole entry): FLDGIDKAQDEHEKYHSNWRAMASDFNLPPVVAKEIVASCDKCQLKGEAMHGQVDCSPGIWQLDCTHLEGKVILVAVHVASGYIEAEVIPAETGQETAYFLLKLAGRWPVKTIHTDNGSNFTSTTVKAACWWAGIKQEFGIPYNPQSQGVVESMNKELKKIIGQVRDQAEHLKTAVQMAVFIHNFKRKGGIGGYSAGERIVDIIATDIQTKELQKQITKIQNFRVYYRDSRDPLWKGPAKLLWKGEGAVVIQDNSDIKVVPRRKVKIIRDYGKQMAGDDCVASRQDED
Description for in vitro: Selectivity index, ratio of CC50 for human HeLa cells expressing CD4-LTR-beta-gal to EC50 for HIV1 3B

As a reminder, the pEC50 is the negative decadic logarithm of the EC50, by convention in mol/L. The term CC50 denotes the concentration giving 50% cytotoxicity. A lower CC50 goes with greater toxicity to the cells. What is called pIC50 is −log10 of the IC50, conventionally taken in molar units. As to `O=C(O)/C(O)=C/C(=O)c1cn(Cc2ccc(F)cc2)c2cc(N3CCOCC3)ccc2c1=O`, the pEC50 in series [1] was 4.58. Besides, the half-maximal cytotoxic concentration (CC50) with HeLa was over 50 µM. The values for the pIC50 in series [2], in series [4] and in series [5] were 5.17, 7.10 and 4.89, respectively. Besides, the inhibition entry in series [3] was “inactive”. For the same molecule, the selectivity ratio in the series “in vitro” was over 1.9.

For the molecule `CCOC(=O)/C(O)=C/C(=O)c1cn(Cc2ccc(F)cc2)c2cc(N3CCOCC3)ccc2c1=O`, the pEC50 in series [1] is 4.79. The molecule further showed a CC50 in the series on HeLa of over 50 µM. In addition, in the series “in vitro”, the selectivity ratio is over 3. Further, the pIC50 was 5.68 in series [4] and under 3.95 in series [5].

Consider `O=C(O)/C(O)=C/C(=O)c1cn(Cc2ccc(F)cc2)c2cc(N3CCNCC3)ccc2c1=O`, for which the negative logarithm of the EC50 (pEC50) in series [1] is under 4.30.

Turning to `O=C(O)/C(O)=C/C(=O)c1cn(Cc2ccc(F)cc2)c2cc(N3CCCC3)ccc2c1=O`, in the series with HeLa, the CC50 was over 50 µM. The pIC50 in series [2] is 5.29. Also, the inhibition entry in series [3] was “inactive”.

As for `CCOC(=O)/C(O)=C/C(=O)c1cn(Cc2ccc(F)cc2)c2cc(N(C)C)ccc2c1=O`, the negative-log EC50 (pEC50) in series [1] was under 4.30. Also, the negative logarithm of the IC50 (pIC50) is 5.54 in series [4] and 4.39 in series [5].

On to `CCOC(=O)/C(O)=C/C(=O)c1cn(Cc2ccc(F)cc2)c2cc(N3CCN(CC)CC3)ccc2c1=O`, for which, in the series with HeLa, the cytotoxic concentration (CC50) was over 50 µM.

Regarding `O=C(O)/C(O)=C/C(=O)c1cn(Cc2ccc(F)cc2)c2cc(N3CCN(CCCCl)CC3)ccc2c1=O`, in series [1], the pEC50 was under 4.30. In addition, the pIC50 was 5.24 in series [2], 7.30 in series [4] and 5.34 in series [5]. Moreover, the inhibition entry in series [3] is “inactive”.

With `CCOC(=O)/C(O)=C/C(=O)c1cn(Cc2ccc(F)cc2)c2cc(N3CCNCC3)ccc2c1=O`, the pEC50 in series [1] was 4.68. The molecule also had a CC50 in the series on HeLa of over 50 µM. Also, the selectivity ratio in the series “in vitro” was over 2.4. In addition, the negative-log IC50 (pIC50) in series [4] was 4.62; in series [5], under 3.48.

On to `CCOC(=O)/C(O)=C/C(=O)c1cn(Cc2ccc(F)cc2)c2cc(N3CCN(C(C)=O)CC3)ccc2c1=O`, for which the pEC50 in series [1] was under 4.30. In addition, the values for the pIC50 in series [4] and in series [5] were 6.77 and 4.77, respectively.

As for `CCN1CCN(c2ccc3c(=O)c(C(=O)/C=C(\O)C(=O)O)cn(Cc4ccc(F)cc4)c3c2)CC1`, the pEC50 in series [1] was under 4.30. Further, the values for the pIC50 in series [4] and in series [5] were 6.68 and 4.64, respectively.

For `CCOC(=O)/C(O)=C/C(=O)c1cn(Cc2ccc(F)cc2)c2cc(N3CCCC3)ccc2c1=O`, the half-maximal cytotoxic concentration (CC50) with HeLa was over 50 µM.

In the case of `CCOC(=O)/C(O)=C/C(=O)c1cn(Cc2ccc(F)cc2)c2cc(N3CCN(CCCCl)CC3)ccc2c1=O`, in series [1], the pEC50 was 4.88. The CC50 in the series with HeLa was over 50 µM. The selectivity ratio in the series “in vitro” is over 3.7. The results for the pIC50 in series [4] and in series [5] were 5.89 and 3.99, respectively.

`CC(=O)N1CCN(c2ccc3c(=O)c(C(=O)/C=C(\O)C(=O)O)cn(Cc4ccc(F)cc4)c3c2)CC1` displayed a CC50 with HeLa of over 50 µM.

In the series on HeLa, `Cc1nnc(C(=O)NC(C)(C)c2nc(C(=O)NCc3ccc(F)cc3)c(O)c(=O)n2C)o1` came in with a 50% cytotoxic concentration (CC50) of over 50 µM.

`O=C(O)/C(O)=C/C(=O)c1cn(Cc2ccc(F)cc2)c2cc(N3CCSCC3)ccc2c1=O`: the negative logarithm of the EC50 (pEC50) in series [1] is under 4.30. Also, the negative-log IC50 (pIC50) was 6.44 in series [4] and 4.52 in series [5].

For `CN1CCN(c2ccc3c(=O)c(C(=O)/C=C(\O)C(=O)O)cn(Cc4ccc(F)cc4)c3c2)CC1`, in series [1], the negative-log EC50 (pEC50) was under 4.30. The pIC50 in series [4] is 7.00; in series [5] it was 5.07.

In the case of `CN(C)c1ccc2c(=O)c(C(=O)/C=C(\O)C(=O)O)cn(Cc3ccc(F)cc3)c2c1`, the negative-log EC50 (pEC50) in series [1] was under 4.30.

As to `CCOC(=O)/C(O)=C/C(=O)c1cn(Cc2ccc(F)cc2)c2cc(N3CCN(C)CC3)ccc2c1=O`, in the series with HeLa, the half-maximal cytotoxic concentration (CC50) is over 50 µM.

As for `COc1cc2c(cc1Cc1cccc(Cl)c1F)c(=O)c(C(=O)O)cn2[C@H](CO)C(C)C`, the pEC50 in series [1] was 7.85. The CC50 in the series with HeLa is over 50 µM.
